Patent US20080194732A1, “Optically transparent polymer with antibiofouling properties” (priority 2007, published 2008)

Assays:
[1] = Decomposition point temperature by thermal gravimetric analysis; type: physicochemical
Procedure: The decomposition point temperature, or the temperature at which a material burns or decomposes, of the antifoulants must be above the processing temperature of the polymer. As determined by thermal gravimetric analysis, the decomposition point temperatures are 210° C. for capsaicin, 208° C. for Diuron, and 196° C. for Irgarol® 1051. The processing temperatures for melt extrusion are: for PMMA, 125° C.; for CBDO terephthalates (Cycloshield®), 130° C., and for polycarbonate, 190° C. It is expected that the antibiofoulants will be entrained in the polymer matrices. This entrainment is a key to the antifouling properties of the coverglasses or windows as it is the chemical nature of the antibiofoulants that provides the antifouling properties. In a typical matrix with entrained compounds there will always be some of these compounds exposed at the surface. Further, depending on the nature of the matrix, there will also be some diffusion rate of the compounds throughout the material.

Chlorella capsulata = test: Algae growth on antifoulant-loaded PMMA samples suspended 35 days in a salt water aquarium, read by optical transmission; type: cell-based; settings: 35 days in algae tank; for effect on algae growth: antifoulant in solvent-cast PMMA sheet
Procedure: To test the antifoulant properties of the capsaicin-loaded PMMA and the mixtures of algaecides and polymers, a marine environment was established. Tests were performed in a salt water environment as opposed to a freshwater environment due to the aggressive growth of salt water plants and animals. The supposition is that if the antifoulant-doped coverglass works in a salt water environment, it will work in a fresh water environment. Using a standard 5-gallon aquarium, the salt water environment was set up using a commercially available sea salt solution (INSTANT OCEAN®). The solution was prepared to have a specific gravity of 1.020-1.023, a pH of ˜8.3, and a water temperature of about 27° C. A small aliquot of Chlorella capsulata (a known aggressive biofouling algae) was obtained from the UTEX Culture Collection of Algae and grown in the aquarium. Growth of the algae was further enhanced using an algae growth promoter (KENT PRO-CULTURE). After four weeks of growth, a dense algae growth was present in the aquarium.
PMMA/capsaicin samples of varying capsaicin concentration were prepared as previously described. The samples to be tested were cut into 25×25 mm squares and suspended in the aquarium. To ensure that no location-dependent effects were incorporated into the study, the samples were rotated every few days. The aquarium lights and air system were left running at all times. The samples were left in place for 35 days.
After 35 days, the samples were removed from the tank and rinsed carefully with deionized water to remove any adhering salts. The algae coated samples were then tested for their optical transmission properties using the Ocean Optics SD2000 UV-Vis spectrometer. To properly hold and test the samples, samples wetted with a couple of drops of deionized water were placed in between two standard 1″×3″ microscope slides. […] In fact, algae grew better on the samples with a higher concentration of capsaicin.
Algae growth studies similar to that conducted for the capsaicin-loaded PMMA were then conducted for the Diuron/PMMA and Irgarol®/PMMA samples. […]

[2] = Leaching rate of algaecides from PMMA substrates in water, by UV spectroscopy; type: physicochemical; settings: for leach rate: deionized water, 35 days; for leaching into test tanks: after five months, up to the limit of the spectrometer
Procedure: The effective lifetimes of the antifoulant-containing coverglass materials were tested by studying the leaching rate of the algaecides from PMMA substrates in water. The UV absorption bands of Diuron (at 254 nm) and Irgarol® (at 234 nm) were used to detect their presence in aqueous solutions. To study the leaching rate, duplicate samples of the highest concentration of algaecide in PMMA (4% by weight for Diuron and 0.5% for Irgarol®; three samples each) were placed in separate closed containers of ultra-pure deionized water (18 MΩ purity). After 35 days, the concentration of algaecide that had leached into the water was determined by UV spectroscopy using a standard Beer-Lambert law relationship:
Where A is the absorbance of the compound, ε is the extinction coefficient associated with the compound, l is the cell path length, and C is the concentration of the compound. By establishing a suitable set of calibration curves, ε can be calculated from empirical results. A set of calibration curves for both Diuron and Irgarol® was established from 10^−3 M to 10^−7 M in aqueous solution. A Mineral Light Short Wave UV source was used to provide the input light, while the absorption of the samples was collected with the Ocean Optics S2000 previously discussed. Aqueous samples were placed into closed quartz cuvettes for analysis. For the UV measurements the Ocean Optics spectrometer was equipped with a UV transmissive fiber optic cable and spectra collected from 200 nm to 575 nm. Absorbance was measured at the previously mentioned values. A reference sample of ultra-pure deionized water was used for this study.
The study determined that the lower limit of the spectrometer was approximately 10^−5 M concentration for these algaecides. […] That compares favorably to the reported leach rate of 4.04 μg cm^−2 days^−1 reported for leaching of Irgarol® from marine paints.

[3] = leaching from marine paints, reported value; cited from earlier work

## CN(C)C(=O)Nc1ccc(Cl)c(Cl)c1 [Diuron, 3-(3,4-dichlorophenyl)-1,1-dimethylurea]
[1]
  decomposition point temperature: 208 °C
Chlorella capsulata
  effect on algae growth: no sign of algae growth
[2]; 4% by weight Diuron in PMMA, no absorption at 254 nm
  leach rate: below 1.67 μg cm^−2 days^−1
[2]
  leaching into test tanks: no evidence was found

## CSc1nc(NC2CC2)nc(NC(C)(C)C)n1 [Irgarol®, N-(tert-butyl)-N′-cyclopropyl-6-(methylthio)-1,3,5-triazine-2,4-diamine]
[1]
  decomposition point temperature: 196 °C
[3]
  reported leach rate from marine paints: 4.04 μg cm^−2 days^−1
[2]; 0.5% Irgarol in PMMA, no absorption at 234 nm
  leach rate: < 1.81 μg cm^−2 day^−1
[2]
  leaching into test tanks: no evidence was found

## COc1cc(CNC(=O)CCCC/C=C/C(C)C)ccc1O [capsaicin]
[1]
  decomposition point temperature: 210 °C
Chlorella capsulata; PMMA/capsaicin samples of varying capsaicin concentration
  loss of visible transmission after algae growth: the greater the concentration of capsaicin, the greater was the loss of transmission
Chlorella capsulata
  effect on algae growth: no effect in decreasing algae growth
